Test results as given in paper PMC3951324, “Side Chain Hydrophobicity Modulates Therapeutic Activity and Membrane Selectivity of Antimicrobial Peptide Mastoparan-X” (PLoS ONE, 2014).
Ends that are not written are not given here.

System: human red blood cells (RBCs)
Assay: Haemolysis assay
Type: cell-based
Source text: All Fmoc (9H-fluoren-9-yl-methyloxycarbonyl) L-amino acids and HATU (1-[Bis(dimethylamino)methylene]-1H-1,2,3-triazolo[4,5-b]pyridinium 3-oxid hexafluorophosphate, N-[(Dimethylamino)-1H-1,2,3-triazolo-[4,5-b]pyridin-1-ylmethylene]-N-methylmethanaminium hexafluorophosphate N-oxide) were purchased from GLS China (GL Biochem, Shanghai, China). Fmoc-2-amino-decanoic acid was obtained from Watanabe Chemical Industries, Ltd (Hiroshima, Japan). Lys and Trp were side-chain-protected as tert-butoxycarbonyl, Asn was sidechain protected with trityl. Tentagel resin was purchased from NovaBiochem (Merck, Darmstadt, Germany). TFA (trifluoroacetic acid), TIS (triisopropylsilane), HEPES (N-(2-hydroxyethyl)piperazine-N-(2-ethanesulfonic acid)), 2,4,6-collidine and pyrene were purchased from Sigma-Aldrich (Brøndby, Denmark). Pyridine, sodium hydroxide pellets and sodium chloride was purchased from J.T. Baker Chemicals (Phillipsburg, NJ, USA). Filter supports and Hamilton extrusion syringes, POPG (1-palmitoyl-2-oleoyl-sn-glycero-3-[phospho-rac-(1-glycerol)] sodium salt), and POPC (1-palmitoyl-2-oleoyl-sn-glycero-3-phosphocholine) were purchased from Avanti Polar Lipids (Alabaster, AL). All compounds were used without further purification. Membrane filters for extrusion (100 nm pore size, polycarbonate) were purchased from Whatman (Maidstone, UK). Cuvettes (4×10 mm, quartz, Suprasil) were purchased from Hellma (Müllheim, Germany). Purified human erythrocytes for the haemolysis studies were provided by Bioneer (Hørsholm, Denmark), and were stored at 4°C for a maximum of three days before use.
The assay was conducted as described in Etzerodt et al..

INWKGIAAMAKKLL-NH2 [MPX, mastoparan X, reference compound]
% haemolysis (human RBCs, 50 µM peptide): 15% | H5, concentration at which 5% haemolysis has been obtained (purified human erythrocytes, assay as in Etzerodt et al. [14]): 18 ± 2 µM
